From patent publication US20170121319A1, “Herbicidal Compounds” (Syngenta Participations AG, priority 2014, published 2017)

Columns and labels:
Assay type in all cases: in vivo
Parameters in all cases: key: 5=total damage to plant; 0=no damage to plant
LOLPE [1] = assay: Pre-emergence herbicidal activity, glasshouse pot test
Protocol: (§1) Seeds of a variety of test species were sown in standard soil in pots. After cultivation for one day (pre-emergence) under controlled conditions in a glasshouse (at 24/16° C., day/night; 14 hours light; 65% humidity), the plants were sprayed with an aqueous spray solution derived from the formulation of the technical active ingredient in acetone/water (50:50) solution containing 0.5% Tween 20 (polyoxyethelyene sorbitan monolaurate, CAS RN 9005-64-5). The test plants were then grown in a glasshouse under controlled conditions (at 24/16° C., day/night; 14 hours light; 65% humidity) and watered twice daily. After 13 days, the test was evaluated (5=total damage to plant; 0=no damage to plant). Pre- and post-emergence testing was carried out as detailed above on the compounds A1, A2, A4 and A5 and their respective S-enantiomers.

[2] = test system: AMARE = Amaranthus retroflexus; assay: as above
Protocol: as §1

[3] = test system: ABUTH = Abutilon theophrasti; assay: as above
Protocol: as §1

ZEAMX = Zea mays [4] = assay: as above
Protocol: as §1

[5] = test system: ECHCG = Echinochloa crus-galli; assay: as above
Protocol: as §1

SETFA = Setaria faberi [6] = assay: as above; details: for SEFTA damage score (0-5): comparison of enantiomers; for SETFA damage score (0-5): 1000 g/Ha, evaluated after 13 days
Protocol: as §1

LOLPE [7] = assay: Post-emergence herbicidal activity, glasshouse pot test
Protocol: (§2) Seeds of a variety of test species were sown in standard soil in pots. After 8 days cultivation (post-emergence) under controlled conditions in a glasshouse (at 24/16° C., day/night; 14 hours light; 65% humidity), the plants were sprayed with an aqueous spray solution derived from the formulation of the technical active ingredient in acetone/water (50:50) solution containing 0.5% Tween 20 (polyoxyethelyene sorbitan monolaurate, CAS RN 9005-64-5). The test plants were then grown in a glasshouse under controlled conditions (at 24/16° C., day/night; 14 hours light; 65% humidity) and watered twice daily. After 13 days, the test was evaluated (5=total damage to plant; 0=no damage to plant). Pre- and post-emergence testing was carried out as detailed above on the compounds A1, A2, A4 and A5 and their respective S-enantiomers.

[8] = test system: AMARE = Amaranthus retroflexus; assay: as above
Protocol: as §2

[9] = test system: ABUTH = Abutilon theophrasti; assay: as above
Protocol: as §2

ZEAMX = Zea mays [10] = assay: as above
Protocol: as §2

[11] = test system: ECHCG = Echinochloa crus-galli; assay: as above
Protocol: as §2

SETFA = Setaria faberi [12] = assay: as above; details: for SEFTA damage score (0-5): comparison of enantiomers; for SETFA damage score (0-5): 1000 g/Ha, evaluated after 13 days
Protocol: as §2

[13] = comparison of enantiomers, 62.5 g/Ha
[14] = comparison of enantiomers, 250 g/Ha
[15] = 1000 g/Ha, evaluated after 13 days

Structure (SMILES) | LOLPE damage score (0-5) (LOLPE [1]; [13]) | AMARE damage score (0-5) [2, 13] | AMARE damage score (0-5) [2, 14] | ABUTH damage score (0-5) [3, 13] | ABUTH damage score (0-5) [3, 14] | ZEAMX damage score (0-5) (ZEAMX = Zea mays [4]; [13]) | ZEAMX damage score (0-5) (ZEAMX = Zea mays [4]; [14]) | ECHCG damage score (0-5) [5, 13] | ECHCG damage score (0-5) [5, 14] | SEFTA damage score (0-5) (SETFA = Setaria faberi [6]; 250 g/Ha) | LOLPE damage score (0-5) (LOLPE [7]; [14]) | AMARE damage score (0-5) [8, 13] | AMARE damage score (0-5) [8, 14] | ABUTH damage score (0-5) [9, 13] | ABUTH damage score (0-5) [9, 14] | ZEAMX damage score (0-5) (ZEAMX = Zea mays [10]; [13]) | ZEAMX damage score (0-5) (ZEAMX = Zea mays [10]; [14]) | ECHCG damage score (0-5) [11, 13] | ECHCG damage score (0-5) [11, 14] | SEFTA damage score (0-5) (SETFA = Setaria faberi [12]; 62.5 g/Ha) | further results
CCO[C@H]1C(O)N(c2cc(C(C)(C)F)on2)C(=O)N1C (stereo partly drawn) [A5 S-enantiomer, reference compound] | 0 | 5 | 5 | 0 | 0 | 0 | 0 | 0 | 0 | 0 | 0 | 1 | 5 | 0 | 1 | 0 | 0 | 0 | 0 | 0 | LOLPE damage score (0-5) (LOLPE [1]; [14]): 0; SEFTA damage score (0-5) (SETFA = Setaria faberi [6]; 62.5 g/Ha): 0; LOLPE damage score (0-5) (LOLPE [7]; [13]): 0; SEFTA damage score (0-5) (SETFA = Setaria faberi [12]; 250 g/Ha): 1
COC[C@H]1C(O)N(c2cc(C(C)(C)C)on2)C(=O)N1C (stereo partly drawn) [A4 S-enantiomer, reference compound] | 0 | 1 | 3 | 0 | 0 | 0 | 0 | 0 | 0 | 0 | 0 | 0 | 2 | 0 | 0 | 0 | 0 | 0 | 1 | 0 | LOLPE damage score (0-5) (LOLPE [1]; [14]): 0; SEFTA damage score (0-5) (SETFA = Setaria faberi [6]; 62.5 g/Ha): 0; LOLPE damage score (0-5) (LOLPE [7]; [13]): 0; SEFTA damage score (0-5) (SETFA = Setaria faberi [12]; 250 g/Ha): 0
CCO[C@@H]1C(O)N(c2cc(C(C)(C)C)on2)C(=O)N1C (single isomer, unassigned) [Example A2] | 3 | 5 | 5 | 3 | 3 | 4 | 4 | 5 | 4 | 5 | 5 | 5 | 5 | 5 | 5 | 5 | 5 | 5 | 5 | 3 | AMARE damage score (0-5) [2, 15]: 5; ABUTH damage score (0-5) [3, 15]: 5; ZEAMX damage score (0-5) (ZEAMX = Zea mays [4]; [15]): 2; ECHCG damage score (0-5) [5, 15]: 4; SETFA damage score (0-5) (SETFA = Setaria faberi [6]): 1; AMARE damage score (0-5) [8, 15]: 5; ABUTH damage score (0-5) [9, 15]: 5; ZEAMX damage score (0-5) (ZEAMX = Zea mays [10]; [15]): 4; ECHCG damage score (0-5) [11, 15]: 5; SETFA damage score (0-5) (SETFA = Setaria faberi [12]): 5
CO[C@H]1C(O)N(c2cc(C(C)(C)C)on2)C(=O)N1C (stereo partly drawn) [A1 S-enantiomer, reference compound] | 0 | 5 | 5 | 0 | 0 | 0 | 0 | 0 | 0 | 0 | 1 | 5 | 5 | 0 | 2 | 1 | 1 | 1 | 1 | 0 | LOLPE damage score (0-5) (LOLPE [1]; [14]): 0; SEFTA damage score (0-5) (SETFA = Setaria faberi [6]; 62.5 g/Ha): 0; LOLPE damage score (0-5) (LOLPE [7]; [13]): 0; SEFTA damage score (0-5) (SETFA = Setaria faberi [12]; 250 g/Ha): 2
CCO[C@@H]1C(O)N(c2cc(C(C)(C)F)on2)C(=O)N1C (stereo partly drawn) [Example A5] | 4 | 5 | 5 | 5 | 5 | 5 | 5 | 5 | 2 | 5 | 5 | 5 | 5 | 5 | 5 | 5 | 5 | 5 | 5 | 5 | LOLPE damage score (0-5) (LOLPE [1]; [15]): 5; LOLPE damage score (0-5) (LOLPE [1]; [14]): 5; AMARE damage score (0-5) [2, 15]: 5; ABUTH damage score (0-5) [3, 15]: 5; ZEAMX damage score (0-5) (ZEAMX = Zea mays [4]; [15]): 3; ECHCG damage score (0-5) [5, 15]: 5; SETFA damage score (0-5) (SETFA = Setaria faberi [6]): 5; SEFTA damage score (0-5) (SETFA = Setaria faberi [6]; 62.5 g/Ha): 5; LOLPE damage score (0-5) (LOLPE [7]; [15]): 5; LOLPE damage score (0-5) (LOLPE [7]; [13]): 5; AMARE damage score (0-5) [8, 15]: 5; ABUTH damage score (0-5) [9, 15]: 5; ZEAMX damage score (0-5) (ZEAMX = Zea mays [10]; [15]): 5; ECHCG damage score (0-5) [11, 15]: 5; SETFA damage score (0-5) (SETFA = Setaria faberi [12]): 5; SEFTA damage score (0-5) (SETFA = Setaria faberi [12]; 250 g/Ha): 5
